According to patent US9499538B2, “Estrogen receptor modulators and uses thereof” (Seragon Pharmaceuticals, Inc., priority 2012, dated 2016):

Legend:
MCF-7 cells = assay: Breast Cancer Cell Viability Assays (MCF-7, CellTiter-Glo); assay type: cell-based; conditions: 5 days' compound exposure; for IC50: Homo sapiens, MCF7, 120 h
Summary of the method: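 MCF-7 cells (320/well, RPMI with 10% FBS) exposed for 5 days to an eleven-point semilog series, 0.3–0.000003 μM final. Viability read by CellTiter-Glo luminescence, expressed as background-corrected percent of untreated cells.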

ER-α in MCF-7 cells = target: T1, ER-α in MCF-7 cells (Homo sapiens, UniProt P03372); assay: Breast Cancer Cell ER-α In Cell Western Assay (SP1); assay type: cell-based; conditions: 4 or 24 hr post compound addition; for Emax: MCF7, SP1 antibody, read-out: ER-α In Cell Western Assay (SP1) Max Response; for DC50: SP1 antibody, read-out: ER-α In Cell Western Assay (SP1) IC50
T1 construct: endogenous in cells; host or cells: MCF-7
T1 sequence (P03372 1-595): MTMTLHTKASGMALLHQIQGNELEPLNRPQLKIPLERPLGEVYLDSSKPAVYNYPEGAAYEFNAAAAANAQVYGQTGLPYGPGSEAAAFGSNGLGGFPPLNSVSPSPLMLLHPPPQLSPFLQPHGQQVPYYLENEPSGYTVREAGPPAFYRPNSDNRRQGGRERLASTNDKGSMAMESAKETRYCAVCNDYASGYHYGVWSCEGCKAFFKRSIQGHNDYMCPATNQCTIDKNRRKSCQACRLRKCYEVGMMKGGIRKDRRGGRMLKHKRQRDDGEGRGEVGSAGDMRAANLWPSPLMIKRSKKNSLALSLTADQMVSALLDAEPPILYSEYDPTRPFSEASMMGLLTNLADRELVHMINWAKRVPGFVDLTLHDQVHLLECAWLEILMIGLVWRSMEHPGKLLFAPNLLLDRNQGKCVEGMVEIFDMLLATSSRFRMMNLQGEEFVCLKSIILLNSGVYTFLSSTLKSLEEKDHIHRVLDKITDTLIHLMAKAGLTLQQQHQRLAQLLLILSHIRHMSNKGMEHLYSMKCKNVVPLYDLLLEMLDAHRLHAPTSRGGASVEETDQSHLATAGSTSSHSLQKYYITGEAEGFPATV
Summary of the method: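 MCF-7 cells in charcoal-stripped FBS medium, treated with 11-point semilog dilutions (0.3–0.000003 μM final) for 4 or 24 h. Fixed cells immunostained with SP1 antibody (800 nm) and DRAQ5 DNA (700 nm); ER/DNA ratio expressed as % of untreated cells.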

Compound	MCF7 Viability Assay Max Response (MCF-7 cells)	IC50 (MCF-7 cells)	Emax (ER-α in MCF-7 cells)	DC50 (ER-α in MCF-7 cells)
N#Cc1cc(Cl)ccc1/C(=C(\c1ccc(/C=C/C(=O)O)cc1)c1ccc2nccn2c1)C1CCC1 [Example 227, (E)-3-(4-((E)-2-(4-Chloro-2-cyanophenyl)-2-cyclobutyl-1-(imidazo[1,2-a]pyridin-6-yl)vinyl)phenyl)acrylic acid]	++ (++ = a single % value ≧ 40%)	≤ 100 nM	≥ 40%	≤ 100 nM
COc1ccc(/C(=C(\c2ccc(/C=C/C(=O)O)cc2)c2ccc3nccn3c2)C2CCC2)c(Cl)c1 [Example 228, (E)-3-(4-((E)-2-(2-Chloro-4-methoxyphenyl)-2-cyclobutyl-1-(imidazo[1,2-a]pyridin-6-yl)vinyl)phenyl)acrylic acid]	++ (++ = a single % value ≧ 40%)	≤ 100 nM	≥ 40%	≤ 100 nM
COc1ccc(/C(=C(\c2ccc(/C=C/C(=O)O)cc2)c2ccc3nccn3c2)C2CCC2)c(C)c1 [Example 229, (E)-3-(4-((E)-2-Cyclobutyl-1-(imidazo[1,2-a]pyridin-6-yl)-2-(4-methoxy-2-methylphenyl)vinyl)phenyl)acrylic acid]	++ (++ = a single % value ≧ 40%)	≤ 100 nM	≥ 40%	≤ 100 nM
CCOc1ccc(/C(=C(\c2ccc(/C=C/C(=O)O)cc2)c2ccc3[nH]nc(F)c3c2)C2CCC2)c(Cl)c1 [Example 230, (E)-3-(4-((E)-2-(2-Chloro-4-ethoxyphenyl)-2-cyclobutyl-1-(3-fluoro-1H-indazol-5-yl)vinyl)phenyl)acrylic acid]	++ (++ = a single % value ≧ 40%)	≤ 100 nM	≥ 40%	≤ 100 nM
O=C(O)/C=C/c1ccc(/C(=C(\c2ccc(C(F)(F)F)cc2Cl)C2CCC2)c2ccc3nccn3c2)cc1 [Example 231, (E)-3-(4-((E)-2-(2-Chloro-4-(trifluoromethyl)phenyl)-2-cyclobutyl-1-(imidazo[1,2-a]pyridin-6-yl)vinyl)phenyl)acrylic acid]	++ (++ = a single % value ≧ 40%)	≤ 100 nM	≥ 40%	≤ 100 nM
COc1ccc(/C(=C(\c2ccc(/C=C/C(=O)O)cc2)c2ccc3scnc3c2)C2CCC2)c(Cl)c1 [Example 232, (E)-3-(4-((E)-1-(Benzo[d]thiazol-5-yl)-2-(2-chloro-4-methoxyphenyl)-2-cyclobutylvinyl)phenyl)acrylic acid]	++ (++ = a single % value ≧ 40%)	≤ 100 nM	≥ 40%	≤ 100 nM
O=C(O)/C=C/c1ccc(/C(=C(\c2ccc(CO)cc2Cl)C2CCC2)c2ccc3scnc3c2)cc1 [Example 233, (E)-3-(4-((E)-1-(Benzo[d]thiazol-5-yl)-2-(2-chloro-4-(hydroxymethyl)phenyl)-2-cyclobutylvinyl)phenyl)acrylic acid]	++ (++ = a single % value ≧ 40%)	≤ 100 nM	≥ 40%	≤ 100 nM
O=C(O)/C=C/c1ccc(/C(=C(\c2ccccc2Cl)C2CCC2)c2ccc3scnc3c2)cc1 [Example 234, (E)-3-(4-((E)-1-(Benzo[d]thiazol-5-yl)-2-(2-chlorophenyl)-2-cyclobutylvinyl)phenyl)acrylic acid]	++ (++ = a single % value ≧ 40%)	≤ 100 nM	≥ 40%	≤ 100 nM
O=C(O)/C=C/c1ccc(/C(=C(\c2cccc(F)c2Cl)C2CCC2)c2ccc3scnc3c2)cc1 [Example 235, (E)-3-(4-((E)-1-(Benzo[d]thiazol-5-yl)-2-(2-chloro-3-fluorophenyl)-2-cyclobutylvinyl)phenyl)acrylic acid]	++ (++ = a single % value ≧ 40%)	≤ 100 nM	≥ 40%	≤ 100 nM
O=C(O)/C=C/c1ccc(/C(=C(\c2cc(F)ccc2Cl)C2CCC2)c2ccc3scnc3c2)cc1 [Example 236, (E)-3-(4-((E)-1-(Benzo[d]thiazol-5-yl)-2-(2-chloro-5-fluorophenyl)-2-cyclobutylvinyl)phenyl)acrylic acid]	++ (++ = a single % value ≧ 40%)	≤ 100 nM	≥ 40%	≤ 100 nM
Cc1cc(CO)ccc1/C(=C(\c1ccc(/C=C/C(=O)O)cc1)c1ccc2scnc2c1)C1CCC1 [Example 237, (E)-3-(4-((E)-1-(Benzo[d]thiazol-5-yl)-2-cyclobutyl-2-(4-(hydroxymethyl)-2-methylphenyl)vinyl)phenyl)acrylic acid]	++ (++ = a single % value ≧ 40%)	≤ 100 nM	≥ 40%	≤ 100 nM
Cc1ccccc1/C(=C(\c1ccc(/C=C/C(=O)O)cc1)c1ccc2scnc2c1)C1CCC1 [Example 238, (E)-3-(4-((E)-1-(Benzo[d]thiazol-5-yl)-2-cyclobutyl-2-(o-tolyl)vinyl)phenyl)acrylic acid]	++ (++ = a single % value ≧ 40%)	≤ 100 nM	≥ 40%	≤ 100 nM
Cc1cc(F)ccc1/C(=C(\c1ccc(/C=C/C(=O)O)cc1)c1ccc2scnc2c1)C1CCC1 [Example 239, (E)-3-(4-((E)-1-(Benzo[d]thiazol-5-yl)-2-cyclobutyl-2-(4-fluoro-2-methylphenyl)vinyl)phenyl)acrylic acid]	++ (++ = a single % value ≧ 40%)	≤ 100 nM	≥ 40%	≤ 100 nM
COc1ccc(/C(=C(\c2ccc(/C=C/C(=O)O)cc2)c2ccc3scnc3c2)C2CCC2)c(C)c1 [Example 240, (E)-3-(4-((E)-1-(Benzo[d]thiazol-5-yl)-2-cyclobutyl-2-(4-methoxy-2-methylphenyl)vinyl)phenyl)acrylic acid]	++ (++ = a single % value ≧ 40%)	≤ 100 nM	≥ 40%	≤ 100 nM
O=C(O)/C=C/c1ccc(/C(=C(\c2ccc(OC(F)(F)F)cc2Cl)C2CCC2)c2ccc3scnc3c2)cc1 [Example 241, (E)-3-(4-((E)-1-(Benzo[d]thiazol-5-yl)-2-(2-chloro-4-(trifluoromethoxy)phenyl)-2-cyclobutylvinyl)phenyl)acrylic acid]	++ (++ = a single % value ≧ 40%)	≤ 100 nM	≥ 40%	≤ 100 nM
N#Cc1cc(C(F)(F)F)ccc1/C(=C(\c1ccc(/C=C/C(=O)O)cc1)c1ccc2scnc2c1)C1CCC1 [Example 242, (E)-3-(4-((E)-1-(Benzo[d]thiazol-5-yl)-2-(2-cyano-4-(trifluoromethyl)phenyl)-2-cyclobutylvinyl)phenyl)acrylic acid]	++ (++ = a single % value ≧ 40%)	≤ 100 nM	≥ 40%	≤ 100 nM
N#Cc1cc(C(F)(F)F)ccc1/C(=C(\c1ccc(/C=C/C(=O)O)cc1)c1ccc2[nH]nc(F)c2c1)C1CCC1 [Example 243, (E)-3-(4-((E)-2-(2-Cyano-4-(trifluoromethyl)phenyl)-2-cyclobutyl-1-(3-fluoro-1H-indazol-5-yl)vinyl)phenyl)acrylic acid]	++ (++ = a single % value ≧ 40%)	≤ 100 nM	≥ 40%	≤ 100 nM
O=C(O)/C=C/c1ccc(/C(=C(\c2ncc(C(F)(F)F)cc2Cl)C2CCC2)c2ccc3scnc3c2)cc1 [Example 244, (E)-3-(4-((E)-1-(Benzo[d]thiazol-5-yl)-2-(3-chloro-5-(trifluoromethyl)pyridin-2-yl)-2-cyclobutylvinyl)phenyl)acrylic acid]	++ (++ = a single % value ≧ 40%)	≤ 100 nM	≥ 40%	≤ 100 nM
COc1cc(C)c(/C(=C(\c2ccc(/C=C/C(=O)O)cc2)c2cccc3[nH]nc(F)c23)C2CCC2)cn1 [Example 245, (E)-3-(4-((E)-2-Cyclobutyl-1-(3-fluoro-1H-indazol-4-yl)-2-(6-methoxy-4-methylpyridin-3-yl)vinyl)phenyl)acrylic acid]	++ (++ = a single % value ≧ 40%)	≤ 100 nM	≥ 40%	≤ 100 nM
O=C(O)/C=C/c1ccc(/C(=C(\c2ncccc2Cl)C2CCC2)c2cccc3[nH]nc(F)c23)cc1 [Example 246, (E)-3-(4-((E)-2-(3-Chloropyridin-2-yl)-2-cyclobutyl-1-(3-fluoro-1H-indazol-4-yl)vinyl)phenyl)acrylic acid]	++ (++ = a single % value ≧ 40%)	≤ 100 nM	≥ 40%	≤ 100 nM
